{"source": "patent US20240217968A1", "about": "“PHARMACEUTICAL COMPOUND” (DUKE STREET BIO LIMITED, priority 2021, published 2024)", "data": [{"molecular_target": "T1, recombinant human Flag-tagged PARP7 (amino acids 456-657) (Homo sapiens, UniProt Q7Z3E1)", "T1 construct": "recombinant human Flag-tagged PARP7 (amino acids 456-657)", "T1 sequence (Q7Z3E1 456-657)": "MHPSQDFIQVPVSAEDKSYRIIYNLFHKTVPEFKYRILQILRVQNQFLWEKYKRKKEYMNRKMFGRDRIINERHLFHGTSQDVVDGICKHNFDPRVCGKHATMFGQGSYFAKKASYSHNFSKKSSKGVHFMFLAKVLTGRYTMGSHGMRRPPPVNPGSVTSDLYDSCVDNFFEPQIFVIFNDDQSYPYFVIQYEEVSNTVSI", "test": "PARP7 biochemical DELFIA assay (auto-MARylation)", "details": "DELFIA readout, IC50 class", "procedure": "A suitable assay may be conducted using 10-30 nM PARP7 (amino acids 456-657), 2 μM biotin-NAD assay solution in 20 mM HEPES (pH 7.5), 100 mM NaCl, 2 mM DTT, 0.1% BSA (w/v), 0.02% Tween (v/v) assay buffer. MARylation may take place for 2-3 h at room temperature and may be detected using a dissociation-enhanced lanthanide fluorescence immunoassay (DELFIA) readout. This assay format has been recently utilised for screening for modulators of PARP7 and other MonoPARP enzymes ([…]. et al. Forced Self-Modification Assays as a Strategy to Screen MonoPARP Enzymes. SLAS Discovery. 25; 241-252, (2020)). A particularly suitable assay is described in the Examples below. Optiplate HB 384-well plates were coated with anti-FLAG antibody, supplied as a 4 mg/ml solution, using a Na2CO3/HCO3 coating buffer at pH 9.6, overnight at 4° C., in order to achieve a final immobilisation per well of 0.3 μg. Wells were then washed 3× in coating wash buffer (PBS/0.05% Tween (v/v)), blocked with 2% BSA (w/v) in coating wash buffer and washed 3 further times prior to assay. For the assay 20 μl of 12.5-37.5 nM recombinant human Flag-tagged PARP7 (amino acids 456-657) was added to each well of the 384-well plate for 30 min at room temperature. 50 nl of test compound in DMSO was added using pintool technology and plates were incubated for a further 30 min at room temperature. 5 μl of 15 μM biotin-NAD^+ assay solution in 20 mM HEPES (pH 7.5), 100 mM NaCl, 2 mM DTT, 0.1% BSA (w/v), 0.02% Tween (v/v) assay buffer was then added and MARylation proceeded for 2-3 h at room temperature prior to the addition of 5 μl of 12 mM NAD^+ quenching solution. After 30 min at room temperature, assay solution was removed and following washing 5 times, 100 μl of a 1:1000 dilution of DELFIA Eu-N1 Streptavidin reagent was added. Plates were then incubated for 30 min at room temperature. Reaction mixture was removed and plates washed 5 times prior to the addition of 25 μl DELFIA enhancement solution. Following incubation for 30 min at room temperature, fluorescence was read on either an Envision or Pherastar FS (Ex337 nm, Em620 nm).", "units": {"IC50": "nM"}, "values": [{"smiles": "CC(COCC(=O)N1CCN(c2ncc(C(F)(F)F)cn2)CC1)Oc1cccc2c(=O)[nH]ncc12", "note": "(racemic) [Compound 33, 5-((1-(2-oxo-2-(4-(5-(trifluoromethyl)pyrimidin-2-yl)piperazin-1-yl)ethoxy)propan-2-yl)oxy)phthalazin-1(2H)-one]", "IC50": "100 to 1000"}, {"smiles": "CC1Cc2c(cn[nH]c2=O)N(CCOCCC(=O)N2CCN(c3ncc(C(F)(F)F)cn3)CC2)C1", "note": "(single isomer, unassigned) [Compound 64, 3-methyl-1-(2-(3-oxo-3-(4-(5-(trifluoromethyl)pyrimidin-2-yl)piperazin-1-yl)propoxy)ethyl)-2,3,4,6-tetrahydropyrido[2,3-d]pyridazin-5(1H)-one]", "IC50": "≤ 100"}, {"smiles": "CC1Cc2c(cn[nH]c2=O)N(CCOCCC(=O)N2CCN(c3ncc(C(F)(F)F)cn3)CC2)C1", "note": "(single isomer, unassigned) [Compound 65, 3-methyl-1-(2-(3-oxo-3-(4-(5-(trifluoromethyl)pyrimidin-2-yl)piperazin-1-yl)propoxy)ethyl)-2,3,4,6-tetrahydropyrido[2,3-d]pyridazin-5(1H)-one]", "IC50": "≤ 100"}, {"smiles": "CC(COCCC(=O)N1CCN(c2ccc(C#N)cn2)CC1)c1cccc2c(=O)[nH]ncc12", "note": "(single isomer, unassigned) [Compound 71]", "IC50": "≤ 100"}, {"smiles": "CC(COCCC(=O)N1CCN(c2ncc(C(F)(F)F)cn2)CC1)c1cccc2c(=O)[nH]ncc12", "note": "(single isomer, unassigned) [Compound 72, 5-(1-(3-oxo-3-(4-(5-(trifluoromethyl)pyrimidin-2-yl)piperazin-1-yl)propoxy)propan-2-yl)phthalazin-1(2H)-one]", "IC50": "1000 to 10000"}, {"smiles": "CC(COCCC(=O)N1CCN(c2ncc(C(F)(F)F)cn2)CC1)c1cccc2c(=O)[nH]ncc12", "note": "(single isomer, unassigned) [Compound 73, 5-(1-(3-oxo-3-(4-(5-(trifluoromethyl)pyrimidin-2-yl)piperazin-1-yl)propoxy)propan-2-yl)phthalazin-1(2H)-one]", "IC50": "≤ 100"}, {"smiles": "CC1CN(c2ccc(C#N)cn2)CCN1C(=O)CCOCCc1cccc2c(=O)[nH]ncc12", "note": "(single isomer, unassigned) [Compound 86]", "IC50": "≤ 100"}, {"smiles": "CC(OCCCC(=O)N1CCN(c2ncc(C(F)(F)F)cn2)CC1)c1cccc2c(=O)[nH]ncc12", "note": "(single isomer, unassigned) [Compound 122]", "IC50": "≤ 100"}, {"smiles": "CC(OCCCC(=O)N1CCN(c2ncc(C(F)(F)F)cn2)CC1)c1cc(F)cc2c(=O)[nH]ncc12", "note": "(single isomer, unassigned) [Compound 130]", "IC50": "≤ 100"}, {"smiles": "O=C(CCOCCc1cccc2c(=O)[nH]ncc12)N1CCN(c2ncc(C(F)(F)F)cn2)C(CO)C1", "note": "(single isomer, unassigned) [Compound 149]", "IC50": "≤ 100"}, {"smiles": "Cc1cn(C(C)COCCC(=O)N2CCN(c3ncc(C(F)(F)F)cn3)CC2)c2cn[nH]c(=O)c12", "note": "(single isomer, unassigned) [Compound 151]", "IC50": "≤ 100"}, {"smiles": "CC(OCCCC(=O)N1CCN(c2ncc(C(F)(F)F)cn2)CC1)c1cc(Cl)cc2c(=O)[nH]ncc12", "note": "(single isomer, unassigned) [Compound 174, 7-chloro-5-(1-(4-oxo-4-(4-(5-(trifluoromethyl)pyrimidin-2-yl)piperazin-1-yl)butoxy)ethyl)phthalazin-1(2H)-one]", "IC50": "≤ 100"}, {"smiles": "CC(OCCCC(=O)N1CCN(c2ncc(C(F)(F)F)cn2)CC1)c1cc(Cl)cc2c(=O)[nH]ncc12", "note": "(single isomer, unassigned) [Compound 175, 7-chloro-5-(1-(4-oxo-4-(4-(5-(trifluoromethyl)pyrimidin-2-yl)piperazin-1-yl)butoxy)ethyl)phthalazin-1(2H)-one]", "IC50": "≤ 100"}, {"smiles": "CC(COCCC(=O)N1CCN(c2ncc(C(F)(F)F)cn2)CC1)n1nc(C(F)(F)F)c2c(=O)[nH]ncc21", "note": "(single isomer, unassigned) [Compound 176, 1-(1-(3-oxo-3-(4-(5-(trifluoromethyl)pyrimidin-2-yl)piperazin-1-yl)propoxy)propan-2-yl)-3-(trifluoromethyl)-1,5-dihydro-4H-pyrazolo[3,4-d]pyridazin-4-one]", "IC50": "≤ 100"}, {"smiles": "CC(COCCC(=O)N1CCN(c2ncc(Cl)cn2)CC1)n1nc(C(F)(F)F)c2c(=O)[nH]ncc21", "note": "(single isomer, unassigned) [Compound 185]", "IC50": "≤ 100"}, {"smiles": "CC1CN(C(=O)CCOCCn2nc(C(F)(F)F)c3c(=O)[nH]ncc32)CCN1c1ncc(C(F)(F)F)cn1", "note": "(single isomer, unassigned) [Compound 187]", "IC50": "≤ 100"}, {"smiles": "CC1CN(C(=O)CCOCCn2nc(C(F)(F)F)c3c(=O)[nH]ncc32)CCN1c1ncc(C(F)(F)F)cn1", "note": "(single isomer, unassigned) [Compound 188]", "IC50": "≤ 100"}, {"smiles": "CC(COCCC(=O)N1CCN(c2ccc(C#N)cn2)CC1)n1ncc2c(=O)[nH]ncc21", "note": "(single isomer, unassigned) [Compound 189]", "IC50": "≤ 100"}, {"smiles": "CC(COCCC(=O)N1CCN(c2ccc(C#N)cn2)CC1)n1ncc2c(=O)[nH]ncc21", "note": "(single isomer, unassigned) [Compound 190]", "IC50": "100 to 1000"}, {"smiles": "CCC(OCCCC(=O)N1CCN(c2ncc(C(F)(F)F)cn2)CC1)c1cccc2c(=O)[nH]ncc12", "note": "(single isomer, unassigned) [Compound 210]", "IC50": "≤ 100"}, {"smiles": "O=C(CCCOC(c1cccc2c(=O)[nH]ncc12)C(F)(F)F)N1CCN(c2ncc(C(F)(F)F)cn2)CC1", "note": "(single isomer, unassigned) [Compound 221, 5-(2,2,2-trifluoro-1-(4-oxo-4-(4-(5-(trifluoromethyl)pyrimidin-2-yl)piperazin-1-yl)butoxy)ethyl)phthalazin-1(2H)-one]", "IC50": "100 to 1000"}, {"smiles": "O=C(CCCOC(c1cccc2c(=O)[nH]ncc12)C(F)(F)F)N1CCN(c2ncc(C(F)(F)F)cn2)CC1", "note": "(single isomer, unassigned) [Compound 222, 5-(2,2,2-trifluoro-1-(4-oxo-4-(4-(5-(trifluoromethyl)pyrimidin-2-yl)piperazin-1-yl)butoxy)ethyl)phthalazin-1(2H)-one]", "IC50": "100 to 1000"}, {"smiles": "CC(COCCC(=O)N1CCN(c2ncc(C(F)(F)F)cn2)CC1)n1cc(C(F)(F)F)c2c(=O)[nH]ncc21", "note": "(single isomer, unassigned) [Compound 223, 1-(1-(3-oxo-3-(4-(5-(trifluoromethyl)pyrimidin-2-yl)piperazin-1-yl)propoxy)propan-2-yl)-3-(trifluoromethyl)-1,5-dihydro-4H-pyrrolo[2,3-d]pyridazin-4-one]", "IC50": "≤ 100"}, {"smiles": "CC(COCCC(=O)N1CCN(c2ncc(C(F)(F)F)cn2)CC1)n1cc(C(F)(F)F)c2c(=O)[nH]ncc21", "note": "(single isomer, unassigned) [Compound 224, 1-(1-(3-oxo-3-(4-(5-(trifluoromethyl)pyrimidin-2-yl)piperazin-1-yl)propoxy)propan-2-yl)-3-(trifluoromethyl)-1,5-dihydro-4H-pyrrolo[2,3-d]pyridazin-4-one]", "IC50": "≤ 100"}, {"smiles": "Cc1nn(C(C)COCCC(=O)N2CCN(c3ncc(C(F)(F)F)cn3)CC2)c2cn[nH]c(=O)c12", "note": "(single isomer, unassigned) [Compound 245]", "IC50": "≤ 100"}, {"smiles": "CC(COCCC(=O)N1CCN(c2ncc(F)cn2)CC1)n1nc(C(F)(F)F)c2c(=O)[nH]ncc21", "note": "(single isomer, unassigned) [Compound 248, 1-(1-(3-(4-(5-fluoropyrimidin-2-yl)piperazin-1-yl)-3-oxopropoxy)propan-2-yl)-3-(trifluoromethyl)-1,5-dihydro-4H-pyrazolo[3,4-d]pyridazin-4-one]", "IC50": "≤ 100"}, {"smiles": "CC(COCCC(=O)N1CCN(c2ncc(F)cn2)CC1)n1nc(C(F)(F)F)c2c(=O)[nH]ncc21", "note": "(single isomer, unassigned) [Compound 249, 1-(1-(3-(4-(5-fluoropyrimidin-2-yl)piperazin-1-yl)-3-oxopropoxy)propan-2-yl)-3-(trifluoromethyl)-1,5-dihydro-4H-pyrazolo[3,4-d]pyridazin-4-one]", "IC50": "≤ 100"}, {"smiles": "CC(COCCC(=O)N1CCN(c2nc(C#N)cs2)CC1)n1nc(C(F)(F)F)c2c(=O)[nH]ncc21", "note": "(single isomer, unassigned) [Compound 250]", "IC50": "1000 to 10000"}, {"smiles": "CC(COCCC(=O)N1CCN(c2ccc(OC(F)(F)F)cn2)CC1)n1nc(C(F)(F)F)c2c(=O)[nH]ncc21", "note": "(single isomer, unassigned) [Compound 253]", "IC50": "≤ 100"}, {"smiles": "CC(COCCC(=O)N1CCN(c2ccc(OC(F)(F)F)cn2)CC1)n1nc(C(F)(F)F)c2c(=O)[nH]ncc21", "note": "(single isomer, unassigned) [Compound 254]", "IC50": "≤ 100"}]}]}
